This note sets out measurements from PubChem BioAssay (NCI).

Some test systems named below: HS 578T breast; SNB-75 CNS; OVCAR-8 ovarian; MDA-MB-231 breast; MCF7 breast; ACHN renal; MALME-3M melanoma; SF-539 CNS; HT29 colon; EKVX NSCLC.
What all share (test): growth of human tumour cells (NCI), 48 h

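Five concentrations, 48 hours, 96-well plates. At the GI50, growth is halved. The concentration for full growth arrest is given as TGI.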 Where only a bound is given, the exact number is not on record here.

As for `O=c1cc(CNc2cc(F)cc(F)c2)c2ccc(I)cc2[nH]1`, the GI50 was 0.41 µM with HS 578T breast; 0.199 µM in the test with SNB-75 CNS; 2.83 µM in the test on OVCAR-8 ovarian; 77.8 µM with MDA-MB-231 breast; 0.388 µM in the test with MCF7 breast; 0.75 µM with ACHN renal. Moreover, the GI50 with MALME-3M melanoma was 0.714 µM; in the test on SF-539 CNS it was 0.461 µM; with HT29 colon, 0.361 µM; in the test with EKVX NSCLC, 2.33 µM. In addition, the TGI with HS 578T breast is greater than 100 µM; with SNB-75 CNS, 3.45 µM; with OVCAR-8 ovarian, greater than 100 µM; in the test with MDA-MB-231 breast, greater than 100 µM; in the test on MCF7 breast, greater than 100 µM; in the test on ACHN renal it was greater than 100 µM. The TGI in the test with MALME-3M melanoma was greater than 100 µM; in the test with SF-539 CNS it was greater than 69.9 µM; with HT29 colon, greater than 100 µM; with EKVX NSCLC, greater than 100 µM.

Turning to `NC(=O)[C@H]1CCN(c2ncnc(N)c2F)C[C@@H]1N1CCC[C@@H](Nc2cc(Cl)cc(C(F)(F)F)c2)C1=O`, the GI50 in the test with HS 578T breast is 15.5 µM; in the test on SNB-75 CNS it was 12.6 µM; with OVCAR-8 ovarian, 25.6 µM; in the test with MDA-MB-231 breast it was 14.3 µM; in the test with MCF7 breast, 13.1 µM; with ACHN renal, 7 µM. The GI50 with MALME-3M melanoma is 19.1 µM; in the test with SF-539 CNS, 14.5 µM; in the test with HT29 colon, 5.29 µM; with EKVX NSCLC, 28.7 µM. Besides, the TGI in the test on HS 578T breast was greater than 100 µM; in the test on SNB-75 CNS, 39.1 µM; in the test on OVCAR-8 ovarian, greater than 100 µM; in the test with MDA-MB-231 breast, 32.6 µM; in the test on MCF7 breast, 52.4 µM; with ACHN renal, 76.3 µM. The TGI with MALME-3M melanoma stood at 42.8 µM; with SF-539 CNS, 33.2 µM; in the test with HT29 colon it was 55.1 µM; in the test on EKVX NSCLC, 77.1 µM.

In the case of `N#Cc1ncc(/N=C/c2ccc(N(CCCl)CCCl)cc2)s1`, the GI50 in the test on HS 578T breast is 63.1 µM; in the test with SNB-75 CNS, 17.6 µM; in the test on OVCAR-8 ovarian it was 7.58 µM; in the test with MDA-MB-231 breast it was 50.2 µM; with MCF7 breast, 8.85 µM; in the test with ACHN renal, 5.13 µM. The GI50 was 30.8 µM in the test with MALME-3M melanoma, 16.8 µM in the test on SF-539 CNS, 72.8 µM in the test on HT29 colon and 42.2 µM with EKVX NSCLC. Moreover, the TGI was greater than 100 µM with HS 578T breast; greater than 100 µM in the test with SNB-75 CNS; greater than 100 µM in the test with OVCAR-8 ovarian; greater than 100 µM with MDA-MB-231 breast; greater than 100 µM in the test with MCF7 breast; 41.6 µM in the test with ACHN renal. The TGI in the test with MALME-3M melanoma, in the test with SF-539 CNS, with HT29 colon and with EKVX NSCLC was greater than 100 µM in each case.

Turning to `CCN(CC)c1ccc(/C=C/c2cc(C)c3ccccc3n2)cc1`, the GI50 in the test with HS 578T breast is 2.09 µM; in the test on SNB-75 CNS, 3.09 µM; in the test with OVCAR-8 ovarian, 4.64 µM; in the test with MDA-MB-231 breast, 3.54 µM; with MCF7 breast, 2.31 µM; in the test on ACHN renal it was 6.12 µM. The GI50 is 3.39 µM in the test on MALME-3M melanoma, 3.2 µM in the test with SF-539 CNS, 2.41 µM with HT29 colon and 4.95 µM with EKVX NSCLC. Further, the TGI was 5.75 µM in the test with HS 578T breast; 9.4 µM with SNB-75 CNS; 55.8 µM in the test with OVCAR-8 ovarian; 13.3 µM in the test on MDA-MB-231 breast; 75.8 µM with MCF7 breast; greater than 100 µM in the test on ACHN renal. For the same compound, the TGI was 22.8 µM with MALME-3M melanoma, 9.61 µM in the test with SF-539 CNS, 7.39 µM with HT29 colon and 44.9 µM with EKVX NSCLC.

Consider `Fc1ccc(-c2nc3n(c2-c2ccncc2)CCS3)cc1`, for which the GI50 in the test with HS 578T breast, in the test with SNB-75 CNS, in the test with OVCAR-8 ovarian, in the test on MDA-MB-231 breast, in the test on MCF7 breast and with ACHN renal was greater than 25 µM in each case. The GI50 in the test on MALME-3M melanoma, in the test on SF-539 CNS, with HT29 colon and in the test on EKVX NSCLC was greater than 25 µM in each case. The TGI in the test on HS 578T breast, with SNB-75 CNS, in the test with OVCAR-8 ovarian, in the test with MDA-MB-231 breast, with MCF7 breast and with ACHN renal was greater than 25 µM each time. Further, the TGI with MALME-3M melanoma, in the test with SF-539 CNS, in the test on HT29 colon and in the test with EKVX NSCLC was greater than 25 µM in each case.

`CC1Oc2cc3c(-c4c(O)cc(O)c5c(O)c6c(cc45)OC(C)C(C)C6=O)c(O)cc(O)c3c(O)c2C(=O)C1C` (stereo not given): the TGI in the test with HS 578T breast came out at 0.459 µM; with SNB-75 CNS it was 0.557 µM; with OVCAR-8 ovarian, 1.4 µM; in the test on MDA-MB-231 breast, 0.378 µM; with MCF7 breast, 3.75 µM; with ACHN renal it was 1.57 µM. Moreover, the TGI was found to be 1.13 µM with MALME-3M melanoma, 0.645 µM in the test with SF-539 CNS, 0.397 µM in the test with HT29 colon and 0.711 µM in the test with EKVX NSCLC.

Take `CCCN1C(=O)/C(=c2\sc3n(c2=O)C2C(NN=3)N(CC)C(=O)N2CC)c2ccccc21` (stereo not given): the GI50 in the test with HS 578T breast is 0.386 µM; with SNB-75 CNS, 0.199 µM; in the test with OVCAR-8 ovarian, 0.688 µM; in the test with MDA-MB-231 breast, 1.41 µM; with MCF7 breast, 0.396 µM; in the test with ACHN renal it was 0.625 µM. Also, the GI50 was 0.612 µM in the test on MALME-3M melanoma, 0.258 µM in the test with SF-539 CNS, 0.347 µM in the test on HT29 colon and 0.729 µM with EKVX NSCLC. Besides, the TGI was greater than 39.8 µM with HS 578T breast; 0.79 µM in the test with SNB-75 CNS; 12.3 µM in the test with OVCAR-8 ovarian; 12.4 µM with MDA-MB-231 breast; greater than 32.9 µM with MCF7 breast; 17.1 µM in the test with ACHN renal. Further, the TGI in the test with MALME-3M melanoma is 25.1 µM; in the test on SF-539 CNS it was 0.802 µM; in the test on HT29 colon, 12.2 µM; in the test with EKVX NSCLC, greater than 57.2 µM.

Turning to `Cc1ccc2[nH]c(C(=O)NN3C(=O)CSC34CCCCC4C)c(-c3ccccc3)c2c1` (stereo not given), the GI50 in the test on HS 578T breast is 27.8 µM; in the test with SNB-75 CNS, 19.6 µM; with OVCAR-8 ovarian it was 17.2 µM; with MDA-MB-231 breast, 17 µM; in the test with MCF7 breast, 14.9 µM; in the test on ACHN renal, 17.3 µM. For the same compound, the GI50 in the test with MALME-3M melanoma was 17.3 µM; in the test on SF-539 CNS, 19.5 µM; in the test with HT29 colon, 14.4 µM; in the test with EKVX NSCLC it was 17 µM. Further, the TGI with HS 578T breast was determined as 96.2 µM; with SNB-75 CNS, 38.1 µM; in the test on OVCAR-8 ovarian it was 35.6 µM; in the test on MDA-MB-231 breast, 34.5 µM; in the test on MCF7 breast, 39.2 µM; in the test with ACHN renal it was 33.3 µM. Further, the TGI with MALME-3M melanoma was determined as 35.6 µM; in the test with SF-539 CNS, 38.4 µM; in the test on HT29 colon, 36.9 µM; in the test on EKVX NSCLC, 33.8 µM.

For the compound `C[C@]12CC[C@H]3[C@@H](CCC4=CC(=O)CC[C@@H]43)[C@@H]1CC[C@@H]2OC(=O)N(CCCl)N=O`, the GI50 was 5.2 µM in the test on HS 578T breast; 0.317 µM in the test on SNB-75 CNS; 5.91 µM with OVCAR-8 ovarian; 14.2 µM in the test on MDA-MB-231 breast; 7.07 µM in the test on MCF7 breast; 0.359 µM with ACHN renal. Also, the GI50 in the test on MALME-3M melanoma is 11.3 µM; in the test with SF-539 CNS it was 0.0959 µM; in the test on HT29 colon, 3.7 µM; in the test with EKVX NSCLC, 3.67 µM. Further, the TGI is 34.2 µM in the test with HS 578T breast; 16.4 µM with SNB-75 CNS; 51.9 µM in the test on OVCAR-8 ovarian; 37.9 µM in the test with MDA-MB-231 breast; 29.8 µM in the test with MCF7 breast; greater than 37.7 µM in the test with ACHN renal. In addition, the TGI amounted to 28.9 µM with MALME-3M melanoma, 10.6 µM in the test with SF-539 CNS, 13.7 µM in the test with HT29 colon and 36.6 µM with EKVX NSCLC.

In the case of `c1ccc2[nH]c(-c3ccc(N4CCN(c5ccc(-c6nc7ccccc7[nH]6)cc5)CC4)cc3)nc2c1`, the GI50 with HS 578T breast is greater than 100 µM; in the test on SNB-75 CNS, greater than 100 µM; with OVCAR-8 ovarian, greater than 100 µM; with MDA-MB-231 breast, greater than 100 µM; in the test on MCF7 breast, 34.5 µM; in the test on ACHN renal, greater than 100 µM. The GI50 in the test on MALME-3M melanoma was greater than 100 µM; in the test with SF-539 CNS, greater than 100 µM; in the test on HT29 colon, greater than 100 µM; in the test with EKVX NSCLC, 25.7 µM. The TGI in the test on HS 578T breast, in the test with SNB-75 CNS, in the test on OVCAR-8 ovarian, in the test on MDA-MB-231 breast, with MCF7 breast and in the test on ACHN renal was greater than 100 µM in each case. Further, the TGI with MALME-3M melanoma, in the test with SF-539 CNS, in the test on HT29 colon and with EKVX NSCLC was greater than 100 µM throughout.

On to `Fc1ccc2[nH]cc(Cc3c[nH]c4ccc(F)cc34)c2c1`, for which the GI50 was 18.5 µM in the test on HS 578T breast; 29 µM in the test with SNB-75 CNS; 19.4 µM with OVCAR-8 ovarian; 16.7 µM in the test with MDA-MB-231 breast; 35.6 µM in the test with MCF7 breast; 26.1 µM with ACHN renal. Besides, the GI50 is 16.7 µM with MALME-3M melanoma, 15.7 µM in the test with SF-539 CNS, 31.4 µM in the test with HT29 colon and 17.6 µM in the test with EKVX NSCLC. The TGI is 44.5 µM in the test on HS 578T breast; 85.6 µM in the test on SNB-75 CNS; 52 µM in the test with OVCAR-8 ovarian; 46.5 µM in the test on MDA-MB-231 breast; greater than 100 µM with MCF7 breast; 63 µM in the test on ACHN renal. In addition, the TGI with MALME-3M melanoma is 33.8 µM; in the test on SF-539 CNS, 33.6 µM; in the test on HT29 colon it was greater than 100 µM; in the test on EKVX NSCLC it was 41.8 µM.
